Read-outs that look alike come from different tables or passages of the source. Marks after values point to notes of the source that are not given here.
Key:
Mt-trHbN(III) [1] = target: T1, Mt-trHbN(III) (Mycobacterium tuberculosis, UniProt P9WN25); assay: Peroxynitrite isomerization by Mt-trHbN(III) in the absence and presence of isoniazid; format: biochemical
T1 construct: made in house
Method: Rapid-mixing experiments were performed using either the SX18.MV stopped-flow apparatus (Applied Photophysics, Salisbury, United Kingdom) or the SFM-20 stopped-flow apparatus (Bio-Logic SAS, Claix, France); the dead time was 1.0 ms.
(§1) Kinetics of peroxynitrite isomerization by Mt-trHbN(III) in the absence and presence of isoniazid was recorded spectrophotometrically at 302 nm (ε302 nm = 1.705×10^3 M^−1 cm^−1) [60]–[67] in the absence and presence of Mt-trHbN(III) (final concentration 2.5×10^−6 – 1.0×10^−5 M) and isoniazid (final concentration 3.0×10^−5 – 4.0×10^−4 M) by rapid mixing the Mt-trHbN(III) or buffer solution with the peroxynitrite solution (final concentration 2.5×10^−4 M).
Kinetics of peroxynitrite isomerization by Mt-trHbN(III) in the absence and presence of isoniazid was analyzed in the framework of the minimum reaction mechanism depicted by Scheme D [60]–[67]: [drawing 11] (D)
Values of the pseudo-first-order rate constant for Mt-trHbN(III)-mediated peroxynitrite isomerization (i.e., l ^obs) were determined in the absence and presence of isoniazid according to Equation 8 [60]–[67]: [drawing 12] (8)
Values of the second-order rate constant for Mt-trHbN(III)-mediated peroxynitrite isomerization (i.e., l on) and of the first-order rate constant for peroxynitrite isomerization in the absence of Mt-trHbN(III) (i.e., l 0) were determined from the linear dependence of l ^obs values on the Mt-trHbN(III) concentration according to Equation 9 [60]–[67]: [drawing 13] (9)
The value of K for isoniazid binding to Mt-trHbN(III) was determined from the dependence of l on the drug concentration (i.e., 3.0×10^−5 M ≤ [isoniazid] ≤4.0×10^−4 M) according to Equation 11 [60]–[67]: [drawing 15] (11) where l on ^app is the value of l on in the presence of isoniazid.

Mt-trHbN(III) [2] = target: T1, Mt-trHbN(III); format: biochemical
plasma protein = system: plasma protein; set-up: method as in ref 89 = [89]; 89 Medical Economics (2004) Drug Information for the Health Care Professional, Thomson PDR, Montvale, p. 1689.; details: cited from earlier work
[3] = Peroxynitrite isomerization in the absence of Mt-trHbN(III); details: pH 7.0, 20.0°C
Method: as §1
Values of l 0 for peroxynitrite isomerization in the absence of Mt-trHbN(III) were also determined in the absence and presence of isoniazid from the analysis of the time-dependent absorbance decrease at 302 nm according to Equation 10 [60]–[67]: [drawing 14] (10)

Mt-trHbN(II) [4] = target: T2, Mt-trHbN(II) (Mycobacterium tuberculosis, UniProt P9WN25); assay: Isoniazid binding to Mt-trHbN(II), stopped-flow, anaerobic
T2 construct: made in house

Mt-trHbN(III) [5] = target: T1, Mt-trHbN(III); assay: biochemical; format: binding
Mt-trHbN(II) [6] = target: T2, Mt-trHbN(II); assay: O2 binding to Mt-trHbN(II) in the absence and presence of isoniazid (tonometer method); details: [isoniazid] = 1.0×10^−2 M
Method: The value of B was determined by the tonometer method adding small volumes of air to the Mt-trHbN(II) solution (1.3×10^−6 M), in the absence and presence of isoniazid ( = 1.0×10^−2 M; B ^obs).

Mt-trHbN(III) [7] = target: T1, Mt-trHbN(III); assay: biochemical; format: binding; remark: listed apart in the source
Mt-trHbN(II) [8] = target: T2, Mt-trHbN(II); format: binding
KatG(III) = target: KatG(III); set-up: method as in PMID 17309235; details: pH 7.2, 25.0°C, cited from earlier work
Sperm whale Mb(III) = details: pH 7.5, 20.0°C; cited from earlier work
[9] = isoniazid 1.0×10^−4 M, pH 7.0, 20.0°C
[10] = isoniazid 1.2×10^−4 M, pH 7.0, 20.0°C
[11] = isoniazid 2.0×10^−4 M, pH 7.0, 20.0°C
[12] = isoniazid 2.4×10^−4 M, pH 7.0, 20.0°C
[13] = isoniazid 3.0×10^−5 M, pH 7.0, 20.0°C
[14] = isoniazid 5.0×10^−5 M, pH 7.0, 20.0°C
[15] = isoniazid 6.0×10^−5 M, pH 7.0, 20.0°C
[16] = Mt-trHbN(III) 5.0×10^−5 M, isoniazid 1.0×10^−2 M, pH 7.0, 20.0°C
[17] = absence of Mt-trHbN(III), isoniazid and azide
[18] = no Mt-trHbN(III), isoniazid 1.0×10^−2 M, pH 7.0, 20.0°C

## NNC(=O)c1ccncc1 [isoniazid]
Mt-trHbN(III) [1]; Equation 11, dependence of l on [isoniazid] 3.0×10^−5 to 4.0×10^−4 M, pH 7.0, 20.0°C, read-out: K for isoniazid binding to Mt-trHbN(III) from inhibition of peroxynitrite isomerization
  Kd: 130 µM
Mt-trHbN(III) [1]; [isoniazid] >10×K
  Mt-trHbN(III) catalysis of peroxynitrite isomerization: does not catalyze the isomerization of peroxynitrite
Mt-trHbN(III) [1]; absence and presence of isoniazid, pH 7.0, 20.0°C
  average l 0 value (l 0 unaffected by isoniazid): 0.28 s⁻¹
Mt-trHbN(III) [1]; from dependence of l on isoniazid concentration
  Hill coefficient n for isoniazid binding to Mt-trHbN(III): 1.00±0.02
Mt-trHbN(III) [1]; [9]
  l 0 for Mt-trHbN(III)-catalyzed peroxynitrite isomerization (y intercept): (3.1±0.3)×10^−1 s^−1
  l on app, second-order rate constant for Mt-trHbN(III)-mediated peroxynitrite isomerization: (3.3±0.3)×10^4 M^−1 s^−1
Mt-trHbN(III) [1]; [10]
  l 0 for Mt-trHbN(III)-catalyzed peroxynitrite isomerization (y intercept): (2.6±0.3)×10^−1 s^−1
  l on app, second-order rate constant for Mt-trHbN(III)-mediated peroxynitrite isomerization: (3.2±0.3)×10^4 M^−1 s^−1
Mt-trHbN(III) [1]; [11]
  l 0 for Mt-trHbN(III)-catalyzed peroxynitrite isomerization (y intercept): (2.5±0.3)×10^−1 s^−1
  l on app, second-order rate constant for Mt-trHbN(III)-mediated peroxynitrite isomerization: (2.7±0.3)×10^4 M^−1 s^−1
Mt-trHbN(III) [1]; [12]
  l 0 for Mt-trHbN(III)-catalyzed peroxynitrite isomerization (y intercept): (3.0±0.3)×10^−1 s^−1
  l on app, second-order rate constant for Mt-trHbN(III)-mediated peroxynitrite isomerization: (2.4±0.3)×10^4 M^−1 s^−1
Mt-trHbN(III) [1]; [13]
  l 0 for Mt-trHbN(III)-catalyzed peroxynitrite isomerization (y intercept): (2.9±0.3)×10^−1 s^−1
  l on app, second-order rate constant for Mt-trHbN(III)-mediated peroxynitrite isomerization: (5.1±0.5)×10^4 M^−1 s^−1
Mt-trHbN(III) [1]; isoniazid 4.0×10^−4 M, pH 7.0, 20.0°C
  l 0 for Mt-trHbN(III)-catalyzed peroxynitrite isomerization (y intercept): (2.5±0.3)×10^−1 s^−1
Mt-trHbN(III) [1]; [14]
  l 0 for Mt-trHbN(III)-catalyzed peroxynitrite isomerization (y intercept): (2.8±0.3)×10^−1 s^−1
  l on app, second-order rate constant for Mt-trHbN(III)-mediated peroxynitrite isomerization: (4.4±0.4)×10^4 M^−1 s^−1
Mt-trHbN(III) [1]; [15]
  l 0 for Mt-trHbN(III)-catalyzed peroxynitrite isomerization (y intercept): (3.0±0.3)×10^−1 s^−1
  l on app, second-order rate constant for Mt-trHbN(III)-mediated peroxynitrite isomerization: (4.1±0.4)×10^4 M^−1 s^−1
Mt-trHbN(III) [2]
  average yield of NO2 –: 26%
  average yield of NO3 –: 74%
Mt-trHbN(III) [2]; [16]
  NO2 –: 25±4%
  NO3 –: 74±8%
  NO3 – + NO2 –: 99%
Mt-trHbN(III) [2]; pH 7
  NO2 –: 26±4%
  NO3 –: 75±8%
  NO3 – + NO2 –: 101%
Plasma protein
  plasma protein binding: very poor
[3]; isoniazid 1.0×10^−4 M
  l 0 for peroxynitrite isomerization in the absence of Mt-trHbN(III): (3.2±0.3)×10 ^−1 s^−1
[3]; isoniazid 1.2×10^−4 M
  l 0 for peroxynitrite isomerization in the absence of Mt-trHbN(III): (2.4±0.3)×10 ^−1 s^−1
[3]; isoniazid 2.0×10^−4 M
  l 0 for peroxynitrite isomerization in the absence of Mt-trHbN(III): (2.6±0.3) ×10 ^−1 s^−1
[3]; isoniazid 2.4×10^−4 M
  l 0 for peroxynitrite isomerization in the absence of Mt-trHbN(III): (2.9±0.3)×10 ^−1 s^−1
[3]; isoniazid 3.0×10^−5 M
  l 0 for peroxynitrite isomerization in the absence of Mt-trHbN(III): (2.7±0.3)×10 ^−1 s^−1
[3]; isoniazid 4.0×10^−4 M
  l 0 for peroxynitrite isomerization in the absence of Mt-trHbN(III): (2.6±0.3)×10 ^−1 s^−1
[3]; isoniazid 5.0×10^−5 M
  l 0 for peroxynitrite isomerization in the absence of Mt-trHbN(III): (3.0 ±0.3)×10 ^−1 s^−1
[3]; isoniazid 6.0×10^−5 M
  l 0 for peroxynitrite isomerization in the absence of Mt-trHbN(III): (2.6±0.3)×10 ^−1 s^−1
Mt-trHbN(II) [4]; Mt-trHbN(II) versus Mt-trHbN(III)
  lower affinity for the ferrous form than for the ferric form: 10 fold
Mt-trHbN(II) [4]; average of the D values here determined
  Kd: 1200 µM
Mt-trHbN(II) [4]; pH 7.0, 20.0°C
  Hill coefficient n for isoniazid binding to Mt-trHbN(II): 1.01±0.01
Mt-trHbN(II) [4]; pH 7.0, 20.0°C, Equation 14, read-out: first-order dissociation rate constant d off
  koff: 1.5 s⁻¹
Mt-trHbN(II) [4]; pH 7.0, 20.0°C, Equation 14, read-out: second-order association rate constant d on
  kon: 1300 M⁻¹ s⁻¹
Mt-trHbN(III) [5]; 1.0×10^−3 M ≤ [isoniazid] ≤4.0×10^−3 M
  mode of inhibition of azide binding to Mt-trHbN(III): inhibits competitively
Mt-trHbN(III) [5]; Equation 7, H obs/H ratio versus [isoniazid] 1.0×10^−3 to 4.0×10^−3 M, pH 7.0, 20.0°C
  Kd: 95 µM
Mt-trHbN(II) [6]
  mode of inhibition of O2 binding to Mt-trHbN(II): inhibits competitively
[17]
  average yield of NO2 –: 29%
  average yield of NO3 –: 72%
[18]
  NO2 –: 31±4%
  NO3 –: 71±6%
  NO3 – + NO2 –: 102%
pH 7
  NO2 –: 28±4%
  NO3 –: 72±5%
  NO3 – + NO2 –: 100%
Mt-trHbN(III) [7]; pH 7
  Hill coefficient n for isoniazid binding to Mt-trHbN(III): 1.01±0.02
Mt-trHbN(III) [7]; pH 7.0, 20.0°C, Equation 3, read-out: first-order dissociation rate constant k off
  koff: 0.46 s⁻¹
Mt-trHbN(III) [7]; pH 7.0, 20.0°C, Equation 3, read-out: second-order association rate constant k on
  kon: 5300 M⁻¹ s⁻¹
Mt-trHbN(III) [7]; pH 7.0, 20.0°C, obtained at equilibrium, Equation 1, read-out: dissociation equilibrium constant K for isoniazid binding to Mt-trHbN(III)
  Kd: 110 µM
Mt-trHbN(III) [7]; pH 7.0, 20.0°C, read-out: K calculated from kinetic parameters (k off/k on)
  Kd: 87 µM
Mt-trHbN(II) [8]; 5.0×10^−3 M isoniazid
  effect of isoniazid on CO binding to Mt-trHbN(II): grossly impairs CO binding
Mt-trHbN(II) [8]; [isoniazid] ≥1.0×10^−2 M, data not shown
  phases of CO binding to Mt-trHbN(II): only the slow phase is observed
KatG(III); obtained at equilibrium, read-out: K for isoniazid binding to KatG(III)
  Kd: ~1 µM
KatG(III)
  k off for isoniazid binding to KatG(III): k off = 2.0×10^−2 s^−1
  k on for isoniazid binding to KatG(III): k on = 4.8×10^2 M^−1 s^−1
KatG(III); read-out: K calculated from kinetic parameters (k off/k on) for KatG(III)
  Kd: 42 µM

## O=NOO [peroxynitrite]
Sperm whale Mb(III)
  l on for peroxynitrite detoxification by sperm whale Mb(III): l on = 1.6×10^4 M^−1 s^−1 ^e

Reference: publication PMC3731299, “Isoniazid Inhibits the Heme-Based Reactivity of Mycobacterium tuberculosis Truncated Hemoglobin N” (PLoS ONE, 2013)
